Where a name gives a salt, the structure may show the parent alone.
Biological target: T1, full-length USP7 (Homo sapiens, UniProt Q93009)
T1 construct: A 45 μl reaction volume containing full-length USP7 (0.5-1.0 nM)
Experiment: Enzymatic assay to determine % inhibition of USP7 activity at 1 μM test compound (Ubiquitin-Rhodamine 110 cleavage)
Format: biochemical
Details: 1 μM of the test compound; given where IC50 has not been determined yet; mean of two repetitions
Procedure: Enzymatic Assay to Determine % Value of Inhibition […] Activity at 1 μM […]
A 45 μl reaction volume containing full-length USP7 (0.5-1.0 nM) in 50 mM HEPES pH 7.5, 150 mM NaCl, 2 mM DTT, 1 mg/ml BSA and 0.05% Tween20 (DUB assay buffer) was assembled in wells of 96 well half area black flat bottom plates. All test compounds were first dissolved to 30 mM stocks in DMSO and subsequently introduced to enzyme 15 min after USP7 incubation with DTT at room temperature. The final concentration of tested compounds was 1 μM. The enzymatic reaction was started by adding 0.5 μM Ubiquitin-Rhodamine 110 (final concentration) and allowed to proceed for 30-60 min at 25° C., 250 RPM shaking before Rhodamine fluorescence (485 nm excitation/535 nm emission) was measured using Tecan Spark M10 plate reader. Percentage of inhibition at 1 μM was determined by the mean of two repetitions for these concentrations using Microsoft Excel software.

T1 sequence (Q93009 whole entry): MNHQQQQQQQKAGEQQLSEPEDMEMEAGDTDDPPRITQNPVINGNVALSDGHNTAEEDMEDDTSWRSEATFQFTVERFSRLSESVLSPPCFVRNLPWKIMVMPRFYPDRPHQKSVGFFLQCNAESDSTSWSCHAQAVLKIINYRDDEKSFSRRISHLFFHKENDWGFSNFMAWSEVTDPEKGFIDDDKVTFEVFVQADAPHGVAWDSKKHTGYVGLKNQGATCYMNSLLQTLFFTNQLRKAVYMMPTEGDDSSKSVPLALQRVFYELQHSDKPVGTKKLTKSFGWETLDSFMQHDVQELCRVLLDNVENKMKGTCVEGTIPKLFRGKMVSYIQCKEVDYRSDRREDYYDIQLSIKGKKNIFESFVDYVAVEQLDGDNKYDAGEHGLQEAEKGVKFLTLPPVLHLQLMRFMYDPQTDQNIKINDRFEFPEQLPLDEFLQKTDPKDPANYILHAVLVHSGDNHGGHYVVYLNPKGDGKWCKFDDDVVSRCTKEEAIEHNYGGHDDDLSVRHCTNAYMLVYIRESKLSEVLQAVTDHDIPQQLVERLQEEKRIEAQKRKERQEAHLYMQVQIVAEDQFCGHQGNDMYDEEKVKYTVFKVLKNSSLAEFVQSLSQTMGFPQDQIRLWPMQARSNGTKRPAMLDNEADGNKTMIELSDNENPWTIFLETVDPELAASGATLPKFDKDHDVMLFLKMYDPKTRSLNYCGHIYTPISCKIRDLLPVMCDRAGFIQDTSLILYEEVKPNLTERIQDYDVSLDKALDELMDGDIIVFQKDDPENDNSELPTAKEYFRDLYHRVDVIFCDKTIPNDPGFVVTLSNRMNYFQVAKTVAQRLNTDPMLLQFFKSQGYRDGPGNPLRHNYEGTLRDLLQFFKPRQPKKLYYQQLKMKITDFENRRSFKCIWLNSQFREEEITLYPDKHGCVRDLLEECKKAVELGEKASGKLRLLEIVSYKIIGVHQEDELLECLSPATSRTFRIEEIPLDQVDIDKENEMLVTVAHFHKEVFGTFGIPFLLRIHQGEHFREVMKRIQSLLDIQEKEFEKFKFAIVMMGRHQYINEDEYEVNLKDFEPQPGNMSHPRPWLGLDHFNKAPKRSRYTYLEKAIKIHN

Which inhibition at 1 µM does the source give for `CN1CCOC(Cc2c(F)cc(Cl)cc2-c2ncnn3cc(Cn4c(=O)ccn(C)c4=O)cc23)C1` (racemic) [Example 103, 3-((4-(5-chloro-3-fluoro-2-((4-methylmorpholin-2-yl)methyl)phenyl)pyrrolo[2,1-f][1,2,4]triazin-6-yl)methyl)-1-methylpyrimidine-2,4(1H,3H)-dione hydrochloride] here?
The inhibition at 1 µM was 20 to 49%.

Which inhibition at 1 µM does the source give for `O=C1CN2CCC[C@H]2C(=O)N1Cc1cc2c(-c3cc(Cl)cc4ccn(C[C@@H]5CNCCO5)c34)ncnn2c1` (single isomer, unassigned) [Example 31, dihydrochloride] here?
Its inhibition at 1 µM is 50 to 70%.

`Cc1cc(Cl)cc(-c2ncnn3cc(CN4C(=O)C5C(C4=O)C5(C)C)cc23)c1CC1CNCC(CF)O1` (single isomer, unassigned) [Example 43, 3-((4-(5-chloro-2-((6-(fluoromethyl)morpholin-2-yl)methyl)-3-methylphenyl)pyrrolo[2,1-f][1,2,4]triazin-6-yl)methyl)-6,6-dimethyl-3-azabicyclo[3.1.0]hexane-2,4-dione hydrochloride] was tested. Which inhibition at 1 µM did it give?
Its inhibition at 1 µM is 20 to 49%.

How did the inhibition at 1 µM turn out when `Cc1cc(Cl)cc(-c2ncnn3cc(CN4C(=O)C5C(C4=O)C5(C)C)cc23)c1OCC1(C)CCCNC1` (single isomer, unassigned) [Example 74, 3-((4-(5-chloro-3-methyl-2-((3-methylpiperidin-3-yl)methoxy)phenyl)pyrrolo[2,1-f][1,2,4]triazin-6-yl)methyl)-6,6-dimethyl-3-azabicyclo[3.1.0]hexane-2,4-dione hydrochloride] was run?
The inhibition at 1 µM was 50 to 70%.

How did the inhibition at 1 µM turn out when `Cc1cc(Cl)cc(-c2ncnn3cc(Cn4cc(F)c(=O)n(C)c4=O)cc23)c1C[C@@H]1CNCCO1` (single isomer, unassigned) [Example 98, hydrochloride] was run?
The inhibition at 1 µM was less than 20%.

Which inhibition at 1 µM does the source give for `Cc1cc(Cl)cc(-c2ncnn3cc(CN4C(=O)CN(C)C4=O)cc23)c1C[C@@H]1CNCCO1` (single isomer, unassigned) [Example 99, hydrochloride] here?
Its inhibition at 1 µM is greater than 70%.

`Cc1cc(Cl)cc(-c2ncnn3cc(Cn4c(=O)ccn(C)c4=O)cc23)c1C[C@H]1CNCCO1` (single isomer, unassigned) [Example 100, hydrochloride] was tested. Which inhibition at 1 µM did it give?
The inhibition at 1 µM was 20 to 49%.

`C[C@H]1CNCC(Cc2c(F)cc(Cl)cc2-c2ncnn3cc(CN4C(=O)CN(C)CC4=O)cc23)O1` (single isomer, unassigned) [Example 119, hydrochloride] was tested. Which inhibition at 1 µM did it give?
Its inhibition at 1 µM is 20 to 49%.

With `C[C@H]1CNCC(Cc2c(F)cc(Cl)cc2-c2ncnn3cc(Cn4c(=O)ccn(C)c4=O)cc23)O1` (single isomer, unassigned) [Example 120, hydrochloride] as the compound, how does the inhibition at 1 µM read?
The inhibition at 1 µM was greater than 70%.

With `Cc1cc(Cl)cc(-c2ncnn3cc(Cn4c(=O)cc[nH]c4=O)cc23)c1CC1CNC[C@H](C)O1` (single isomer, unassigned) [Example 121, dihydrochloride] as the compound, how does the inhibition at 1 µM read?
The inhibition at 1 µM was 50 to 70%.

Which inhibition at 1 µM does the source give for `Cc1cc(Cl)cc(-c2ncnn3cc(Cn4c(=O)ccn(CC(=O)O)c4=O)cc23)c1C[C@@H]1CNCCO1` (single isomer, unassigned) [Example 125, hydrochloride] here?
The inhibition at 1 µM was 20 to 49%.

`Cc1cc(Cl)cc(-c2ncnn3cc(CN4C(=O)C5C(C4=O)C5(C)C)cc23)c1O[C@@H]1CC[C@@H](C)NC1` (stereo partly drawn) [Example 3, 3-((4-(5-chloro-3-methyl-2-(((3R,6R)-6-methylpiperidin-3-yl)oxy)phenyl)pyrrolo[2,1-f][1,2,4]triazin-6-yl)methyl)-6,6-dimethyl-3-azabicyclo[3.1.0]hexane-2,4-dione hydrochloride] was tested. Which inhibition at 1 µM did it give?
Its inhibition at 1 µM is 20 to 49%.

How did the inhibition at 1 µM turn out when `Cc1cc(Cl)cc(-c2ncnn3cc(CN4C(=O)C5C(C4=O)C5(C)C)cc23)c1OC1CCNCC1` (stereo not shown) [Example 4, 3-((4-(5-chloro-3-methyl-2-(piperidin-4-yloxy)phenyl)pyrrolo[2,1-f][1,2,4]triazin-6-yl)methyl)-6,6-dimethyl-3-azabicyclo[3.1.0]hexane-2,4-dione hydrochloride] was run?
The inhibition at 1 µM was 50 to 70%.

With `CC1(C)C2C(=O)N(Cc3cc4c(-c5cc(C(F)(F)F)cc6ccn(C7CCNC7)c56)ncnn4c3)C(=O)C21` (stereo not shown) [Example 5, 6,6-dimethyl-3-((4-(1-(pyrrolidin-3-yl)-5-(trifluoromethyl)-1H-indol-7-yl)pyrrolo[2,1-f][1,2,4]triazin-6-yl)methyl)-3-azabicyclo[3.1.0]hexane-2,4-dione 2,2,2-trifluoroacetate] as the compound, how does the inhibition at 1 µM read?
The inhibition at 1 µM was 20 to 49%.

For `Cc1cc(Cl)cc(-c2ncnn3cc(CN4C(=O)C5C(C4=O)C5(C)C)cc23)c1O[C@@H]1CN[C@H](C(=O)O)C1` (stereo partly drawn) [Example 7, (2S,4S)-4-(4-chloro-2-(6-((6,6-dimethyl-2,4-dioxo-3-azabicyclo[3.1.0]hexan-3-yl)methyl)pyrrolo[2,1-f][1,2,4]triazin-4-yl)-6-methylphenoxy)pyrrolidine-2-carboxylic acid hydrochloride], which inhibition at 1 µM is on record?
The inhibition at 1 µM was less than 20%.

How did the inhibition at 1 µM turn out when `Cc1cc(Cl)cc(-c2ncnn3cc(CN4C(=O)C5C(C4=O)C5(C)C)cc23)c1C(=O)N1CC(F)(F)C1` (stereo not shown) [Example 8, 3-((4-(5-chloro-2-(3,3-difluoroazetidine-1-carbonyl)-3-methylphenyl)pyrrolo[2,1-f][1,2,4]triazin-6-yl)methyl)-6,6-dimethyl-3-azabicyclo[3.1.0]hexane-2,4-dione hydrochloride] was run?
Its inhibition at 1 µM is 20 to 49%.

Which inhibition at 1 µM does the source give for `Cc1cc(Cl)cc(-c2ncnn3cc(CN4C(=O)C5C(C4=O)C5(C)C)cc23)c1OCCN` (stereo not shown) [Example 9, 3-((4-(2-(2-aminoethoxy)-5-chloro-3-methylphenyl)pyrrolo[2,1-f][1,2,4]triazin-6-yl)methyl)-6,6-dimethyl-3-azabicyclo[3.1.0]hexane-2,4-dione hydrochloride] here?
Its inhibition at 1 µM is 50 to 70%.

With `Cc1cc(Cl)cc(-c2ncnn3cc(CN4C(=O)C5C(C4=O)C5(C)C)c(C)c23)c1O[C@H]1CCCNC1` (stereo partly drawn) [Example 12, 3-((4-(5-chloro-3-methyl-2-(((S)-piperidin-3-yl)oxy)phenyl)-5-methylpyrrolo[2,1-f][1,2,4]triazin-6-yl)methyl)-6,6-dimethyl-3-azabicyclo[3.1.0]hexane-2,4-dione hydrochloride] as the compound, how does the inhibition at 1 µM read?
The inhibition at 1 µM was 50 to 70%.

With `CCOC(=O)c1cc2c(-c3cc(Cl)cc(C)c3O[C@H]3CCCNC3)ncnn2c1` [Example 15, ethyl (S)-4-(5-chloro-3-methyl-2-(piperidin-3-yloxy)phenyl)pyrrolo[2,1-f][1,2,4]triazine-6-carboxylate hydrochloride] as the compound, how does the inhibition at 1 µM read?
The inhibition at 1 µM was 20 to 49%.

For `Cc1cc(Cl)cc(-c2ncnn3cc(C(=O)O)cc23)c1O[C@H]1CCCNC1` [Example 16, (S)-4-(5-chloro-3-methyl-2-(piperidin-3-yloxy)phenyl)pyrrolo[2,1-f][1,2,4]triazine-6-carboxylic acid hydrochloride], which inhibition at 1 µM is on record?
Its inhibition at 1 µM is less than 20%.

`Cc1cc(Cl)cc(-c2ncnn3cc(CO)cc23)c1O[C@H]1CCCNC1` [Example 17, (S)-(4-(5-chloro-3-methyl-2-(piperidin-3-yloxy)phenyl)pyrrolo[2,1-f][1,2,4]triazin-6-yl)methanol hydrochloride] was tested. Which inhibition at 1 µM did it give?
The inhibition at 1 µM was less than 20%.

For `Cc1cc(Cl)cc(-c2ncnn3cc(C(N)=O)cc23)c1O[C@H]1CCCNC1` [Example 18, (S)-4-(5-chloro-3-methyl-2-(piperidin-3-yloxy)phenyl)pyrrolo[2,1-f][1,2,4]triazine-6-carboxamide hydrochloride], which inhibition at 1 µM is on record?
Its inhibition at 1 µM is less than 20%.

For `CC1(C)C2C(=O)N(Cc3cc4c(-c5cc(C(F)(F)F)cc6ccn(CC7(O)CCNCC7)c56)ncnn4c3)C(=O)C21` (stereo not shown) [Example 19, 3-((4-(1-((4-hydroxypiperidin-4-yl)methyl)-5-(trifluoromethyl)-1H-indol-7-yl)pyrrolo[2,1-f][1,2,4]triazin-6-yl)methyl)-6,6-dimethyl-3-azabicyclo[3.1.0]hexane-2,4-dione hydrochloride], which inhibition at 1 µM is on record?
Its inhibition at 1 µM is 50 to 70%.

How did the inhibition at 1 µM turn out when `Cc1cc(Cl)cc(-c2ncnn3cc(CN4C(=O)C5C(C4=O)C5(C)C)cc23)c1O[C@@H]1CN[C@@H](C)C1` (stereo partly drawn) [Example 20, 3-((4-(5-chloro-3-methyl-2-(((3S,5S)-5-methylpyrrolidin-3-yl)oxy)phenyl)pyrrolo[2,1-f][1,2,4]triazin-6-yl)methyl)-6,6-dimethyl-3-azabicyclo[3.1.0]hexane-2,4-dione hydrochloride] was run?
Its inhibition at 1 µM is 20 to 49%.

Same assay, conditions: 1 μM of the test compound; given where IC50 has not been determined yet; mean of two repetitions; hydrochloride, 1 µM

How did the USP7 % inhibition turn out when `Cc1cc(Cl)cc(-c2ncnn3cc(CN4C(=O)C5C(C4=O)C5(C)C)cc23)c1OC(C)C1CCNCC1.Cl` (single isomer, unassigned) [Example 56, 3-((4-(5-chloro-3-methyl-2-(1-(piperidin-4-yl)ethoxy)phenyl)pyrrolo[2,1-f][1,2,4]triazin-6-yl)methyl)-6,6-dimethyl-3-azabicyclo[3.1.0]hexane-2,4-dione hydrochloride] was run?
The USP7 % inhibition was “B* (B*: 50-70% inhibition)”.

`Cc1cc(Cl)cc(-c2ncnn3cc(CN4C(=O)C5C(C4=O)C5(C)C)cc23)c1OC(C)C1CCNCC1.Cl` (single isomer, unassigned) [Example 57, 3-((4-(5-chloro-3-methyl-2-(1-(piperidin-4-yl)ethoxy)phenyl)pyrrolo[2,1-f][1,2,4]triazin-6-yl)methyl)-6,6-dimethyl-3-azabicyclo[3.1.0]hexane-2,4-dione hydrochloride] was tested. Which USP7 % inhibition did it give?
Its USP7 % inhibition is “C* (C*: 20-49% inhibition)”.

For `Cc1cc(Cl)cc(-c2ncnn3cc(CN4C(=O)C5C(C4=O)C5(C)C)cc23)c1OC(C)[C@@H]1CNCCO1.Cl` (single isomer, unassigned) [Example 76], which USP7 % inhibition is on record?
The USP7 % inhibition was “B* (B*: 50-70% inhibition)”.

Which USP7 % inhibition does the source give for `Cc1cc(Cl)cc(-c2ncnn3cc(CN4C(=O)C5C(C4=O)C5(C)C)cc23)c1OC(C)[C@@H]1CNCCO1.Cl` (single isomer, unassigned) [Example 77] here?
The USP7 % inhibition was “D* (D*: <20% inhibition)”.

From patent publication US20240150362A1, “Substituted Pyrrolotriazines” (Molecure S.A., priority 2022, published 2024)
